# In patent US20100159093A1, “METHOD OF TREATING FOODSTUFF” (priority 2008, published 2010):
# Experiments:
# [1] = test system: psychrotrophic bacteria in raw milk and lactic acid bacteria; details: 4° C., closed vessel, Murray et al.; cited from earlier work
# Bacillus cereus = assay: Number of Bacillus cereus bacteria in raw milk (MYP dish) under nitrogen gas; type: cell-based; details: 6.0° C., N2 environment (40 ml/min), after 7 days
# Description: (§1) With the device shown in FIG. 1, the effect of nitrogen gas on the natural microflora in raw milk (volume approximately 125 ml) was examined by replacing the air (control) in an open vessel (volume approximately 250 ml) at a constant temperature, with a flow-through of 100% nitrogen gas (purity 99.999%, manufacturer AGA) at two different flow-through rates: N1=120 ml/min, N2=40 ml/min.
# Two flow-through rates of the nitrogen gas were used in the study; (N2) 40 ml/min and (N1) 120 ml/min.
# [2] = test system: microaerobic/fermentative microbes (such as lactobacilli); assay: Growth of lactobacillus-type bacteria in raw milk under nitrogen gas; type: cell-based; details: 12.0° C., N1 environment (120 ml/min), Example 5, FIG. 5G
# Description: With the device shown in FIG. 1, the effect of nitrogen gas on the natural microflora in raw milk (volume approximately 125 ml) was examined by replacing the air (control) in an open vessel (volume approximately 250 ml) at a constant temperature, with a flow-through of 100% nitrogen gas (purity 99.999%, manufacturer AGA) at two different flow-through rates: N1=120 ml/min, N2=40 ml/min. The temperature of the raw milk in the sample bottles was adjusted by means of the thermostat (14) of the water bath to bring the temperature of the milk to 6.0° C., 7.0° C. or 12.0° C. The temperature variation in the vessel was less than ±0.1° C. The effect of nitrogen gas on the growth of the microflora in a raw milk sample at 12.0° C. Two flow-through rates of the nitrogen gas were used in the study: (▴) 40 ml/min and ([…]) 120 ml/min. […] The following bacterial levels were determined in the samples: FIG. 5A: Total bacteria count (p.m.y./ml) FIG. 5B: Total number of psychrotrophs (p.m.y./ml) FIG. 5C: Total number of proteolytic bacteria (p.m.y./ml) FIG. 5D: Total number of lipolytic bacteria (p.m.y./ml) FIG. 5E: Total number of bacteria producing phospholipase (p.m.y./ml). […]
# [3] = test system: anaerobic spores, such as C. tyrobutyricum; assay: Anaerobic spore count in raw milk under nitrogen gas; type: cell-based; details: 12.0° C., N1 environment (120 ml/min), Example 5, FIG. 5L
# Description: as §1
# (§2) The temperature of the raw milk in the sample bottles was adjusted by means of the thermostat (14) of the water bath to bring the temperature of the milk to 6.0° C., 7.0° C. or 12.0° C. The temperature variation in the vessel was less than ±0.1° C.
# (§3) The effect of nitrogen gas on the growth of the microflora in a raw milk sample at 12.0° C. Two flow-through rates of the nitrogen gas were used in the study: (▴) 40 ml/min and ([…]) 120 ml/min. […] The following bacterial levels were determined in the samples:
# (§4) FIG. 5A: Total bacteria count (p.m.y./ml) FIG. 5B: Total number of psychrotrophs (p.m.y./ml) FIG. 5C: Total number of proteolytic bacteria (p.m.y./ml) FIG. 5D: Total number of lipolytic bacteria (p.m.y./ml) FIG. 5E: Total number of bacteria producing phospholipase (p.m.y./ml). […]
# [4] = test system: aerobic spores, such as B. cereus; assay: Aerobic spore count in raw milk under nitrogen gas; type: cell-based; details: 12.0° C., N1 environment (120 ml/min), Example 5, FIG. 5F
# Description: as §1, §2, §3, §4
structure (smiles),measurement,setting,value
N#N [nitrogen gas],growth of the psychrotrophic bacteria in raw milk and of the lactic acid bacteria,[1],only slightly slowed down the growth
same,production of the proteolytic exoenzymes by the psychrotrophic bacteria,[1],effectively prevented the production
same,elimination of bacteria of the B. cereus type from raw milk,Bacillus cereus,adequate for eliminating the bacteria of the B. cereus type
same,growth of microaerobic/fermentative microbes (such as lactobacilli),[2],able to delay the growth
same,formation (sporulation) of anaerobic spores,[3],does not increase the formation (sporulation)
same,formation (sporulation) of aerobic spores,[4],does not increase the formation (sporulation)
